Earlier results in US7385060B2, “Method for producing salts of tolperisone” (Sanochemia Pharmazeutika AG, priority 2002, dated 2008).

Experiments:
HMN = settings: inhalation, human, 30 m
RAT = settings: oral

Structure (SMILES): C=O [formaldehyde]
- IHL-TCLO HMN (HMN): 17 mg/m^3/30 m
- ORL-RAT LD50 (RAT): 100 mg/kg
